Measured values as given in patent publication US20230141433A1, “TRICYCLIC PESTICIDAL COMPOUNDS” (BASF SE, priority 2020, published 2023).

Columns and labels:
Format in all cases: in vivo
[1] = test system: tobacco budworm (Heliothis virescens); assay: Tobacco budworm (Heliothis virescens) egg and larval mortality, insect diet in 96-well microtiter plates; settings: 120 h, 5 days, read-out: mortality in comparison with untreated controls (egg and larval mortality)
Protocol: (§1) If not otherwise specified, the test solutions are prepared as follows: The active compound is dissolved at the desired concentration in a mixture of 1:1 (vol:vol) distilled water:acetone. The test solution is prepared at the day of use. Test solutions are prepared in general at concentrations of 2500 ppm, 1000 ppm, 800 ppm, 500 ppm, 300 ppm, 100 ppm and 30 ppm (wt/vol).
Tobacco Budworm (Heliothis virescens)
(§2) For evaluating control of tobacco budworm (Heliothis virescens) the test unit consisted of 96-well-microtiter plates containing an insect diet and 15-25 H. virescens eggs. The compounds were formulated using a solution containing 75% v/v water and 25% v/v DMSO. Different concentrations of formulated compounds were sprayed onto the insect diet at 10 μl, using a custom built micro atomizer, at two replications. After application, microtiter plates were incubated at about 28±1° C. and about 80±5% relative humidity for 5 days. Egg and larval mortality was then visually assessed.

[2] = test system: boll weevil (Anthonomus grandis); assay: Boll weevil (Anthonomus grandis) egg and larval mortality, insect diet in 96-well microtiter plates; settings: 120 h, 5 days, read-out: mortality in comparison with untreated controls (egg and larval mortality)
Protocol: as §1
Boll Weevil (Anthonomus grandis)
as §2, with “of boll weevil (Anthonomus grandis)” for “of tobacco budworm (Heliothis virescens)”, “and 5-10 A. grandis” for “and 15-25 H. virescens”, “were formula ted” for “were formulated”, “at 5” for “at 10”, “about 25±1°” for “about 28±1°”, “about 75±5%” for “about 80±5%”

[3] = test system: yellow fever mosquito (Aedes aegypti); assay: whole plant or invertebrate; settings: 48 h, 2 days, read-out: mortality in comparison with untreated controls (larval mortality)
Protocol: as §1
Yellow Fever Mosquito (Aedes aegypti)
For evaluating control of yellow fever mosquito (Aedes aegypti) the test unit consisted of 96-well-microtiter plates containing 200 μl of tap water per well and 5-15 freshly hatched A. aegypti larvae. The active compounds were formulated using a solution containing 75% (v/v) water and 25% (v/v) DMSO. Different concentrations of formulated compounds or mixtures were sprayed onto the insect diet at 2.5 μl, using a custom built micro atomizer, at two replications. After application, microtiter plates were incubated at 28±1° C., 80±5% RH for 2 days. Larval mortality was then visually assessed.

[4] = test system: green peach aphid (Myzus persicae); assay: Green peach aphid (Myzus persicae) systemic test, artificial diet under membrane; settings: 72 h, 3 days, read-out: mortality in comparison with untreated controls (aphid mortality)
Protocol: as §1
Green Peach Aphid (Myzus persicae) For evaluating control of green peach aphid (Myzus persicae) through systemic means the test unit consisted of 96-well-microtiter plates containing liquid artificial diet under an artificial membrane. The compounds were formulated using a solution containing 75% v/v water and 25% v/v DMSO. Different concentrations of formulated compounds were pipetted into the aphid diet, using a custom built pipetter, at two replications. After application, 5-8 adult aphids were placed on the artificial membrane inside the microtiter plate wells. The aphids were then allowed to suck on the treated aphid diet and incubated at about 23±1° C. and about 50±5% relative humidity for 3 days. Aphid mortality and fecundity was then visually assessed.

[5] = test system: vetch aphid (Megoura viciae); assay: Vetch aphid (Megoura viciae) contact or systemic test on broad bean leaf disks; settings: foliar, 120 h, 5 days, read-out: mortality in comparison with untreated controls (aphid mortality)
Protocol: as §1
Vetch Aphid (Megoura viciae)
For evaluating control of vetch aphid (Megoura viciae) through contact or systemic means the test unit consisted of 24-well-microtiter plates containing broad bean leaf disks.
The compounds were formulated using a solution containing 75% v/v water and 25% v/v DMSO. Different concentrations of formulated compounds were sprayed onto the leaf disks at 2.5 μl, using a custom built micro atomizer, at two replications. After application, the leaf disks were air-dried and 5-8 adult aphids placed on the leaf disks inside the microtiter plate wells. The aphids were then allowed to suck on the treated leaf disks and incubated at about 23±1° C. and about 50±5% relative humidity for 5 days. Aphid mortality and fecundity was then visually assessed.

CCS(=O)(=O)c1c(-c2nc3cnc4c(OC(F)(F)F)cccc4c3n2C)nc2ccc(C(F)(F)F)cn12 [C-1]
mortality at 2500 ppm [1]: > 75%
mortality at 2500 ppm [2]: > 75%
mortality at 800 ppm [3]: ≥ 75%
mortality at 2500 ppm [4]: > 75%
mortality at 2500 ppm [5]: > 75%

CCS(=O)(=O)c1c(-c2nc3cnc4c(C(F)(F)F)cccc4c3n2C)nc2ccc(C(F)(F)F)cn12 [C-2]
mortality at 2500 ppm [1]: > 75%
mortality at 2500 ppm [2]: > 75%
mortality at 800 ppm [3]: ≥ 75%
mortality at 2500 ppm [4]: > 75%
mortality at 2500 ppm [5]: > 75%

CCS(=O)(=O)c1c(-c2nc3cnc4c(C(F)(F)F)cccc4c3n2C)nc2ccccn12 [C-3]
mortality at 2500 ppm [1]: > 75%
mortality at 2500 ppm [2]: > 75%
mortality at 800 ppm [3]: ≥ 75%
mortality at 2500 ppm [4]: > 75%
mortality at 2500 ppm [5]: > 75%

CCS(=O)(=O)c1c(-c2nc3cnc4c(OC(F)(F)F)cccc4c3n2C)nc2ccccn12 [C-4, 2-(3-ethylsulfonylimidazo[1,2-a]pyridin-2-yl)-1-methyl-6-(trifluoromethoxy)imidazo[4,5-c]quinoline]
mortality at 2500 ppm [1]: > 75%
mortality at 2500 ppm [2]: > 75%
mortality at 800 ppm [3]: ≥ 75%
mortality at 2500 ppm [4]: > 75%
mortality at 2500 ppm [5]: > 75%

CCS(=O)(=O)c1c(-c2nc3cnc4cc(C(F)(F)F)ccc4c3n2C)nc2ccccn12 [C-6]
mortality at 2500 ppm [1]: > 75%
mortality at 2500 ppm [2]: > 75%

CCS(=O)(=O)c1c(-c2cn3c(ccc4c(C(F)(F)F)ccnc43)n2)nc2ccccn12 [C-7, 8-(3-ethylsulfonylimidazo[1,2-a]pyridin-2-yl)-4-(trifluoromethyl)imidazo[1,2-a][1,8]naphthyridine]
mortality at 2500 ppm [1]: > 75%
mortality at 2500 ppm [2]: > 75%
mortality at 800 ppm [3]: ≥ 75%
mortality at 2500 ppm [4]: > 75%

CCS(=O)(=O)c1c(-c2cn3c(ccc4c(C(F)(F)F)cc(C(F)(F)F)nc43)n2)nc2ccc(C(F)(F)F)cn12 [C-8]
mortality at 800 ppm [1]: > 75%
mortality at 800 ppm [2]: > 75%

CCS(=O)(=O)c1c(-c2cn3c(ccc4c(C(F)(F)F)ccnc43)n2)nc2ccc(C(F)(F)F)cn12 [C-9]
mortality at 800 ppm [1]: > 75%
mortality at 800 ppm [2]: > 75%
mortality at 800 ppm [3]: ≥ 75%
mortality at 800 ppm [4]: > 75%

CCS(=O)(=O)c1c(-c2cn3c(ccc4c(C(F)(F)F)ccnc43)n2)nn2ccccc12 [C-10]
mortality at 800 ppm [2]: > 75%
mortality at 800 ppm [4]: > 75%

CCS(=O)(=O)c1c(-c2nc3cc(C(F)(F)F)c4ncccc4c3n2C)nc2ccccn12 [C-11, 2-(3-ethylsulfonylimidazo[1,2-a]pyridin-2-yl)-1-methyl-5-(trifluoromethyl)imidazo[4,5-f]quinoline]
mortality at 800 ppm [1]: > 75%
mortality at 800 ppm [2]: > 75%
mortality at 800 ppm [4]: > 75%

CCS(=O)(=O)c1c(-c2nc3cnc4c(C(F)(F)F)cccc4c3n2C)nc2n1CCCC2 [C-12]
mortality at 800 ppm [1]: > 75%
mortality at 800 ppm [2]: > 75%
mortality at 800 ppm [3]: ≥ 75%
mortality at 800 ppm [4]: > 75%

CCS(=O)(=O)c1c(-c2nc3cnc4cc(OC(F)(F)F)ccc4c3n2C)nc2n1CCCC2 [C-14]
mortality at 800 ppm [1]: > 75%
mortality at 800 ppm [4]: > 75%

CCS(=O)(=O)c1c(-c2nc3cnc4cc(OC(F)(F)F)ccc4c3n2C)nc2ncccn12 [C-15]
mortality at 800 ppm [4]: > 75%

CCS(=O)(=O)c1c(-c2nc3cnc4c(C(F)(F)F)cccc4c3n2C)nc2ncccn12 [C-16]
mortality at 800 ppm [4]: > 75%

CCS(=O)(=O)c1c(-c2nc3cnc4c(OC(F)(F)F)cccc4c3n2C)nc2ncccn12 [C-17]
mortality at 800 ppm [4]: > 75%

CCS(=O)(=O)c1c(-c2nc3cnc4cc(C(F)(F)F)ccc4c3n2C)nc2ncccn12 [C-18]
mortality at 800 ppm [1]: > 75%

CCS(=O)(=O)c1c(-c2nc3cnc4c(C(F)(F)F)cccc4c3n2C)nn2ccccc12 [C-19]
mortality at 800 ppm [1]: > 75%
mortality at 800 ppm [2]: > 75%
mortality at 800 ppm [3]: ≥ 75%
mortality at 800 ppm [4]: > 75%

CCS(=O)(=O)c1c(-c2nc3cnc4cc(C(F)(F)F)ccc4c3n2C)nn2ccccc12 [C-20]
mortality at 800 ppm [1]: > 75%
mortality at 800 ppm [2]: > 75%

CCS(=O)(=O)c1c(-c2nc3cnc4c(OC(F)(F)F)cccc4c3n2C)nn2ccc(C(C)(C)C#N)cc12 [C-22]
mortality at 800 ppm [1]: > 75%
mortality at 800 ppm [2]: > 75%
mortality at 800 ppm [4]: > 75%

CCS(=O)(=O)c1c(-c2nc3cnc4cc(OC(F)(F)F)ccc4c3n2C)nn2ccc(C(C)(C)C#N)cc12 [C-23]
mortality at 800 ppm [1]: > 75%
mortality at 800 ppm [2]: > 75%

CCS(=O)(=O)c1c(-c2nc3cnc4cc(C(F)(F)F)ccc4c3n2C)nc2ccc(Br)cn12 [C-27]
mortality at 800 ppm [1]: > 75%
mortality at 800 ppm [2]: > 75%
mortality at 800 ppm [3]: ≥ 75%

CCS(=O)(=O)c1c(-c2nc3cnc4c(C(F)(F)F)cccc4c3n2C)nc2ccc(Br)cn12 [C-28]
mortality at 800 ppm [1]: > 75%
mortality at 800 ppm [2]: > 75%
mortality at 800 ppm [3]: ≥ 75%
mortality at 800 ppm [4]: > 75%

CCS(=O)(=O)c1c(-c2nc3cnc4cc(OC(F)(F)F)ccc4c3n2C)nn2ccccc12 [C-29]
mortality at 800 ppm [1]: > 75%
mortality at 800 ppm [2]: > 75%
mortality at 800 ppm [3]: ≥ 75%
mortality at 800 ppm [4]: > 75%
